Data taken from patent US4514330A, “Carbon-7-substituted atinomycin D analogue” (Trustees of Boston University, priority 1983, dated 1985).
Like-named read-outs stand apart in the source and are kept apart here.

Legend:
DNA = assay: DNA-binding mode, covalent and noncovalent (statements)
P-388 leukemia = assay: In vivo antitumor activity against P-388 lymphocytic leukemia in CDF1 mice; conditions: for % ILS (percent increase in life span) / MST (median survival time) / cure (over 55 day survivors): days 1, 5, 9; for minimal effective dose: Mus musculus, P388, ip, read-out: MED (minimum effective dose, 40% increase in life span over control); for fold increase in survival time over AMD (1b) or 7-hydroxyactinomycin D (2b): optimal nontoxic dose levels
Method: Studies on in vivo activity of AMD and AMD analogues were carried out with P-388 lymphocytic leukemia in CDF1 hybrid mice. The drugs were administered either daily for 4 successive days (qd 1-4) or on days 1, 5 and 9 (q4d 1, 5, 9) beginning 1 day after tumor implantation.
^a Male CDF1 (18-23 g) mice were inoculated intraperitoneally
(ip) with 10^6 P388 cells on day 0. Drugs were administered, also ip,
in 10% dimethyl sulfoxidesaline on days 1, 5 and 9. Test solutions were
kept at 0-4° C., protected from light, and the stability and
homogeneity were checked periodically by TLC and HPLC.
^b MST = median survival time.
^c % ILS = percent increase in life span.
^d Over 55 day survivors. Average of three experiments. The
^a Drugs administed ip once daily either for 4 successive days (qd
1-4) or on days 1, 5 and 9 (q4d 1, 5 9), starting 1 day after tumor
^b MED (minimum effective dose) is the dose (milligrams/kilogram)
providing an increase in life span of 40% over control in P388

[1] = three injections ip, q4d 1, 5, 9

Structure (SMILES)	% ILS (percent increase in life span) (P-388 leukemia; 0.15 mg/kg ip) [%]	MST (median survival time) (P-388 leukemia; 0.15 mg/kg ip) [days]	cure (over 55 day survivors) (P-388 leukemia; 0.15 mg/kg ip)	% ILS (percent increase in life span) (P-388 leukemia; 0.30 mg/kg ip) [%]	MST (median survival time) (P-388 leukemia; 0.30 mg/kg ip) [days]	cure (over 55 day survivors) (P-388 leukemia; 0.30 mg/kg ip)	% ILS (percent increase in life span) (P-388 leukemia; 0.60 mg/kg ip) [%]	MST (median survival time) (P-388 leukemia; 0.60 mg/kg ip) [days]	cure (over 55 day survivors) (P-388 leukemia; 0.60 mg/kg ip)	% ILS (percent increase in life span) (P-388 leukemia; 1.20 mg/kg ip) [%]	MST (median survival time) (P-388 leukemia; 1.20 mg/kg ip) [days]	cure (over 55 day survivors) (P-388 leukemia; 1.20 mg/kg ip)	% ILS (percent increase in life span) (P-388 leukemia; 1.80 mg/kg ip) [%]	MST (median survival time) (P-388 leukemia; 1.80 mg/kg ip) [days]	cure (over 55 day survivors) (P-388 leukemia; 1.80 mg/kg ip)	minimal effective dose (P-388 leukemia; four injections ip, qd 1-4) [mg/kg]	minimal effective dose (P-388 leukemia; [1]) [mg/kg]	therapeutic index: MTD/MED (P-388 leukemia; four injections ip, qd 1-4)	fold increase in survival time over AMD (1b) or 7-hydroxyactinomycin D (2b) (P-388 leukemia; ip, q4d 1, 5, 9) [fold]	therapeutic index: MTD/MED (P-388 leukemia; [1])	also measured
Cc1c2oc3c(C)c(OCC4CO4)cc(C(=O)N[C@@H]4C(=O)N[C@H](C(C)C)C(=O)N5CCC[C@H]5C(=O)N(C)CC(=O)N(C)[C@@H](C(C)C)C(=O)O[C@@H]4C)c3nc-2c(C(=O)N[C@@H]2C(=O)N[C@H](C(C)C)C(=O)N3CCC[C@H]3C(=O)N(C)CC(=O)N(C)[C@@H](C(C)C)C(=O)O[C@@H]2C)c(N)c1=O (stereo partly shown) [Compound 3b, 7-(2,3-Epoxypropoxy)actinomycin D]	164	29	0/7	263	40	1/7	255	41	1/7	291	43	3/7	300	44	3/7	0.0375	0.05	43	~2.5	72	covalent binding to DNA (DNA; 37° C. or higher, or longer incubation (~20 h)): can bind covalently to DNA; DNA-binding property relative to AMD (DNA; ambient temperature): closely parallel to AMD; % ILS (percent increase in life span) (P-388 leukemia; 2.40 mg/kg ip): 136%; MST (median survival time) (P-388 leukemia; 2.40 mg/kg ip): 26 days; cure (over 55 day survivors) (P-388 leukemia; 2.40 mg/kg ip): 2/7; breadth of dose-response curve (P-388 leukemia; ip, q4d 1, 5, 9): very broad; overall activity relative to AMD (P-388 leukemia; ip, q4d 1, 5, 9): superior to AMD; cure (tumor free), animals out of seven treated (P-388 leukemia; optimal dose ranges of 1.2 and 1.8 mg/kg, ip, q4d 1, 5, 9): three; long-term survivors (P-388 leukemia; throughout the dose range, ip, q4d 1, 5, 9): long-term survivors throughout this dose range
Cc1c2oc3c(C)c(OCC(O)CO)cc(C(=O)N[C@@H]4C(=O)N[C@H](C(C)C)C(=O)N5CCC[C@H]5C(=O)N(C)CC(=O)N(C)[C@@H](C(C)C)C(=O)O[C@@H]4C)c3nc-2c(C(=O)N[C@@H]2C(=O)N[C@H](C(C)C)C(=O)N3CCC[C@H]3C(=O)N(C)CC(=O)N(C)[C@@H](C(C)C)C(=O)O[C@@H]2C)c(N)c1=O (stereo partly shown) [Compound 4b, 7-(2,3-Dihydroxypropoxy) actinomycin D]	45	16	0/7	82	20	2/7	136	25	1/7	191	32	0/7	36	15	0/7	0.125	0.15	6	~1.5	12	–
